These are literature values, as cited in patent US8597613B2, “Radiolabeled lymphatic staining agents and methods for making” (Iso-Tex Diagnostics, Inc, priority 2004, dated 2013).

For this data set the following is noted: 0.1-0.5 cc injected into the breast following wire-localization procedures.

Regarding `CN(C)c1ccc2nc3ccc(=[N+](C)C)cc-3sc2c1` [methylene blue, phenothiazin-5-ium-3,7-bis(dimethylamino)-chloride], the reported adverse events result is listed as “no reported adverse events”.
